Data: patent US4136163A, “P-Menthane carboxamides having a physiological cooling effect” (Wilkinson Sword Limited, priority 1971, dated 1979)

Key:
[1] = test system: cold receptors; test: Threshold test: minimum quantity of compound on filter paper square on tongue giving a noticeable cooling effect, selected panel of 6 people; format: in vivo, human; details: panel of 6 people, cooling reported 50% of the time
Description: For example, a controlling factor in the onset of cooling effect, its intensity and longevity will be the rate of penetration of the compounds through the epidermis and this will vary in different locations on the human body.
It will also benoted that the described test procedure is done on a statistical basis. This is necessary since sensitivity to these compounds will vary not only from compound to compound and from one part of the body to another, but also from one individual to another. Tests of this nature are commonly used in the testing of the organoleptic properties, e.g. taste, smell etc. of organic and inorganic compounds, see Kirk-Othmer: Encyclopedia of Chemical Technology, 2nd. Ed.
The following test procedure is aimed at determining the minimum quantity of the test compound required to produce a noticeable cooling effect on a person of average sensitivity, this minimum quantity being termed the threshold for that particular compound. The tests are carried out on a selected panel of 6 people of median sensitivity to 1-menthol.
To select a test panel of average sensitivity the following procedure is used. Known quantities of 1-menthol in solution in petroleum ether (bp.40-60) are placed on 5 mm. squares of filter paper, whereafter the solvent is allowed to evaporate. A panel of observers is enrolled and asked to place one impregnated square at a time on the tongue and to report on the presence or absence of a cooling effect. […] Conveniently, one starts with squares containing 2.0 μg. 1-menthol, the amount on each successive square being half that of the preceding square, i.e. the second test square will contain 1.0 μg, the third 0.5 μg and so on. Each quantity is tested on the tongue at least 10 times. In this way, the thresholds to cold receptor stimulus by 1-menthol are determined for each individual of the panel, the threshold for each individual being that amount of 1-menthol for which, in a series of not less than 10 test applications, a cooling effect is reported 50% of the time.
To test the activity of compounds according to this invention, the above procedure is repeated using only the 6 selected panel members of average sensitivity to 1-menthol. The individual thresholds for each test compound on each of the 6 selected panel members are determined and averaged. Those compounds whose average threshold on the select test panel is 100 μg or less are regarded as having cooling activity in accordance with this invention.

[2] = test system: cold receptors; test: Cooling effect of consumer product in the mouth / on the tongue; format: in vivo, human
Protocol: To the compositions was added 0.1% of N-n-propyl-p-menthane-3-carboxamide.
Shortly before completion of the blending operation 0.5% by weight of N-(p-menth-3-oyl) morpholine was added to the blender. […]
N-(2-hydroxy-n-propyl)-p-menthane-3-carboxamide was added to a proprietary gin in an amount of 0.08%.
99.5% sucrose and 0.5% citric acid were carefully fused together in the presence of a trace of water. Just before casting the melt onto a chilled plate 0.13% of N,N-dimethyl-p-menthane-3-carboxamide were repidly stirred in. The melt was then cast.
Water was added to icing sugar at 50° C to form a stiff paste. 0.05% of N-ethyl-p-menthane-3-carboxamide was then stirred into a paste and the mixture allowed to set. […]
A proprietary ice cream mixture was mixed in accordance with the manufactures instructions. Shortly before freezing N-p-menth-3-oyl-β-aminopropionic acid n-propyl ester was added in an amount of 0.05%. […]

[3] = test system: cold receptors; test: Cooling effect of eye lotion when used to bathe the eyes; format: in vivo, human; details: Example 9, eye lotion, 0.003%, eyeball and eyelids
Protocol: To the formulation was added 0.003%, based on the total composition of N-(2-hydroxyethyl)-p-menthane carboxamide.

[4] = test system: cold receptors; test: Cooling effect of consumer product applied to skin (face, scalp, lips, forehead); format: in vivo, human
Protocol: Into two separate samples of the base lotion were added 2.0% by weight based on the total composition of N-ethyl-p-menthane-3-carboxamide and N,N-dimethyl-p-menthane-3-carboxamide, each into a different one of the two samples.
To the recipe was added 3.0%, based on the total composition of N-p-menth-3-oylglycine methyl ester. […]
Sodium lauryl ether sulphate, 10 g., was dispersed in 90 g. water in a high speed mill. To the dispersion was added 3.3% by weight of N-(2-hydroxy-n-propyl)-p-menthane-3-carboxamide. […]
The sodium stearate was dissolved by stirring in a warm mixture of the ethanol propylene glycol and water. To the solution was added the perfume and 3.0% of N-(2-hydroxy-n-propyl)-p-menthane-3-carboxamide and the mixture then allowed to solidify into a waxy cake. […]
This Example illustrates now the physiological cooling effect of the compounds of this invention varies according to the locality of application.
In the course of grinding there was added 3.0% of N-n-propyl-p-menthane-3-carboxamide. […]
To this liquid was added 1.0% of N-ethyl-p-menthane-3-carboxamide. A paper tissue was then soaked in the liquid.

[5] = literature; cited from earlier work
[6] = test system: cold receptors; test: Cooling effect in the stomach after swallowing tablet; format: in vivo, human; details: 0.05%
Description: Added to the mixture during grinding was 0.05% of N-ethyl-p-menthane- 3-carboxamide. After mixing the mixture was pressed into 0.5 g tablets.
Soluble aspirin (calcium acetylsalicylate) tablets were impregnated with 0.05% of N-ethyl-p-menthane-3-carboxamide by absorption in the tablet of a metered drop of an ethanolic solution of the carboxamide.

[7] = Example 2, after shave lotion, 2.0%, face

## CC1CCC(C(C)C)C(C(=O)NC(C)(C)CO)C1 (centres unmarked) [H, --C(CH3)2 CH2 OH, N-(1,1-dimethyl-2-hydroxyethyl)-p-menthane-3-carboxamide]
[1]
  Threshold (average minimum quantity to produce a noticeable cooling effect): 0.4 µg
[2]; Example 14, soft drink, 0.02% in concentrate, diluted with water
  cooling effect: pleasantly cool after-effect

## CC1CCC(C(C)C)C(C(=O)NCCO)C1 (centres unmarked) [H, --CH2 CH2 OH, N-(2-hydroxyethyl)-p-menthane carboxamide]
[1]
  Threshold (average minimum quantity to produce a noticeable cooling effect): 5 µg
[3]
  cooling effect: a cool fresh sensation is apparent on the eyeball and eyelids

## CCCNC(=O)C1CC(C)CCC1C(C)C (centres unmarked) [H, --C3 H7 (n), N-n-propyl-p-menthane-3-carboxamide]
[1]
  Threshold (average minimum quantity to produce a noticeable cooling effect): 0.8 µg
[4]; Example 13, talcum powder, 3.0%
  cooling effect: freshening and cooling effect
[2]; Example 10, mouthwash concentrate, 0.1%, diluted with approximately 10 times its own volume of water
  cooling effect: a strong and long lasting cooling effect is obtained in the mouth

## CCC(CC)C(=O)N(C)C [N,N-Dimethyl 2-ethylbutanamide]
[5]
  cooling taste or refreshing effect: refreshing effect

## CC1CCC(C(C)C)C(C(=O)N(C)C)C1 (centres unmarked) [--CH3, --CH3, N,N-dimethyl-p-menthane-3-carboxamide]
[1]
  Threshold (average minimum quantity to produce a noticeable cooling effect): 1.5 µg
[4]; Example 1, aerosol shaving soap, 1.0%, face
  cooling effect: a fresh cool sensation was distinctly noticeable on the face
[4]; [7]
  cooling effect: a clearly noticeable cooling effect became apparent after a short interval of time
[2]; Example 16, boiled sweet, 0.13%, mouth
  cooling effect: marked cooling effect on the mouth

## CCNC(=O)C1CC(C)CCC1C(C)C (centres unmarked) [H, --C2 H5, N-ethyl-p-menthane-3-carboxamide]
[1]
  Threshold (average minimum quantity to produce a noticeable cooling effect): 0.3 µg
[4]; [7]
  cooling effect: a clearly noticeable cooling effect became apparent after a short interval of time
[4]; Example 24, cleansing tissue, 1.0% in liquid, skin
  cooling effect: a fresh cool sensation developed on the skin after a short interval
[2]; Example 12, toothpick, 0.01 mg, tongue
  cooling effect: a distinct cooling effect is noticeable after a short period of time
[2]; Example 17, mint sweet, 0.05%, mouth
  cooling effect: characteristic cooling effect in the mouth of peppermint
[2]; Example 25, water soluble adhesive on label, 0.025%, tongue
  cooling effect: a pleasant cooling sensation on the tongue
[6]; Example 20, indigestion tablet
  cooling effect: after a short interval of time a noticeable cooling effect in the stomach
[6]; Example 23, soluble aspirin tablet
  cooling effect: a quite noticeable cooling effect developed in the stomach after a short interval

## CC1CCC(C(C)C)C(C(=O)N(CCO)CCO)C1 (centres unmarked) [--CH2 CH2 OH, --CH2 CH2 OH, N,N-bis(2-hydroxyethyl)-p-menthane-3-carboxamide]
[1]
  Threshold (average minimum quantity to produce a noticeable cooling effect): 50 µg
[2]; Example 18, chewing gum, 5.0%, mouth
  cooling effect: marked cooling effect in the mouth

## CC(O)CNC(=O)C1CC(C)CCC1C(C)C (centres unmarked) [H, --CH2 CH(OH)CH3, N-(2-hydroxy-n-propyl)-p-menthane-3-carboxamide]
[1]
  Threshold (average minimum quantity to produce a noticeable cooling effect): 5.5 µg
[4]; Example 5, hair shampoo, 3.3%, scalp
  cooling effect: a fresh, cool sensation is noticed on the scalp
[4]; Example 7, solid cologne, 3.0%, forehead
  cooling effect: a very strong and long lasting cooling effect is obtained
[2]; Example 15, gin, 0.08%, mouth
  cooling effect: a very strong cooling after-effect is obtained in the mouth

## CC1CCC(C(C)C)C(C(=O)N2CCOCC2)C1 (centres unmarked) [--CH2 CH2 OCH2 CH2 --, N-(p-menth-3-oyl)morpholine]
[1]
  Threshold (average minimum quantity to produce a noticeable cooling effect): 5.5 µg
[4]; Example 11, applied to the skin as an alcoholic solution
  cooling effect on skin: relatively weak
[2]; Example 11, applied to the mucous membranes of the mouth
  cooling effect on mucous membranes of the mouth: very pronounced
[2]; Example 11, toothpaste, 0.5%, mouth
  cooling effect: a strong cooling effect is noticed in the mouth

## CC(C)C1CCC(C)C(O)C1O (centres unmarked) [2,3-p-menthane diol]
[5]
  cooling taste or refreshing effect: sharp cooling taste

## CCCOC(=O)CCNC(=O)C1CC(C)CCC1C(C)C (stereo not drawn) [N-p-menth-3-oyl-β-aminopropionic acid n-propyl ester]
[2]; Example 19, ice cream, 0.05%
  cooling effect: a cooling effect is noticeable which persists after the cooling effect attributable to the temperature of the ice cream has disappeared
